From patent publication US20250255889A1, “METHODS FOR TREATMENT SELECTION FOR CHRONIC LYMPHOCYTIC LEUKEMIA (CLL)” (The Broad Institute, Inc., priority 2022, published 2025)

Test system: primary CLL samples (CD19+ and CD5+ cells)
Experiment: High-throughput dynamic BH3 profiling (HT-DBP): drug-induced apoptotic priming (delta priming), cytochrome c release after BH3 peptide
Format: cell-based, human
Summary of the method: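 Primary CLL cells (CD19+/CD5+) are treated with the agent or DMSO carrier, then briefly exposed to a fixed concentration of a promiscuous BH3 peptide such as BIM. Mitochondrial cytochrome c release serves as the priming surrogate. Delta priming is drug-treated priming minus DMSO-treated priming, run in high-throughput format.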

[1] = peptide PUMA 1 uM, feature loss_3p21.31
[2] = peptide MS1 2.5 uM, feature m-CLL
[3] = peptide PUMA 1 uM, feature i-CLL
[4] = peptide BAD 0.3 uM, feature ITIH2
[5] = peptide BAD 0.3 uM, feature i-CLL
[6] = peptide BAD 0.3 uM, feature BIRC3
[7] = peptide BAD 0.3 uM, feature loss_9p21.3
[8] = peptide BAD 0.3 uM, feature loss_17q11.2
[9] = peptide BIM 0.01 uM, feature BCOR
[10] = peptide BIM 0.01 uM, feature n-CLL
[11] = peptide MS1 2.5 uM, feature SAMHD1
[12] = peptide MS1 2.5 uM, feature BIRC3
[13] = peptide MS1 2.5 uM, feature ITIH2
[14] = peptide MS1 2.5 uM, feature loss_9p21.3
[15] = peptide MS1 2.5 uM, feature loss_17q11.2

C=CC(=O)Nc1cc(Nc2nccc(-c3cn(C)c4ccccc34)n2)c(OC)cc1N(C)CCN(C)C [Osimertinib]
direction (peptide BAD 0.3 uM, feature IGLV321_R110): Resistant
direction (peptide BAD 0.3 uM, feature MYD88): Resistant
direction (peptide BAD 0.3 uM, feature NOTCH1): Resistant
direction (peptide BAD 0.3 uM, feature RPS15): Resistant
direction (peptide BAD 0.3 uM, feature loss_6q): Resistant
direction (peptide BIM 0.01 uM, feature BIRC3): Sensitive
direction (peptide BIM 0.01 uM, feature EC-u2): Sensitive
direction (peptide BIM 0.01 uM, feature IGLV321_R110): Resistant
direction (peptide BIM 0.01 uM, feature NOTCH1): Resistant
direction (peptide BIM 0.01 uM, feature RPS15): Resistant
direction (peptide BIM 0.01 uM, feature loss_6q): Resistant
direction (peptide BIM 0.01 uM, feature loss_9p21.3): Sensitive
direction (peptide BIM 0.01 uM, feature loss_17q11.2): Sensitive
direction (peptide MS1 2.5 uM, feature EC-i): Resistant
direction (peptide MS1 2.5 uM, feature IGLV321_R110): Resistant
direction (peptide MS1 2.5 uM, feature NOTCH1): Resistant
direction (peptide MS1 2.5 uM, feature RPS15): Resistant
direction (peptide MS1 2.5 uM, feature loss_6q): Resistant
direction (peptide PUMA 1 uM, feature BIRC3): Sensitive
direction (peptide PUMA 1 uM, feature MYD88): Resistant
direction [1]: Resistant
direction (peptide PUMA 1 uM, feature loss_9p21.3): Sensitive
direction (peptide PUMA 1 uM, feature loss_17q11.2): Sensitive

O=C(CCCCCCNC(=O)c1cnc(N(c2ccccc2)c2ccccc2)nc1)NO [Ricolinostat]
direction (peptide BAD 0.3 uM, feature CARD11): Sensitive
direction (peptide BIM 0.01 uM, feature i-CLL): Resistant
direction (peptide BIM 0.01 uM, feature loss_15q15.1b): Resistant
direction (peptide BIM 0.01 uM, feature loss_20p11.22): Resistant
direction (peptide MS1 2.5 uM, feature CNOT3): Sensitive
direction (peptide MS1 2.5 uM, feature loss_10q24.32): Resistant
direction [2]: Sensitive
direction (peptide PUMA 1 uM, feature CARD11): Sensitive
direction (peptide PUMA 1 uM, feature gain_16p11.2): Resistant
direction [3]: Resistant
direction (peptide PUMA 1 uM, feature loss_1q21.3): Resistant
direction (peptide PUMA 1 uM, feature loss_2q31.1): Resistant
direction [1]: Resistant
direction (peptide PUMA 1 uM, feature loss_5p15.33): Resistant
direction (peptide PUMA 1 uM, feature loss_7p22.2): Resistant
direction (peptide PUMA 1 uM, feature loss_10p12.2): Resistant
direction (peptide PUMA 1 uM, feature loss_12p13.31a): Resistant
direction (peptide PUMA 1 uM, feature loss_14q32.12): Resistant
direction (peptide PUMA 1 uM, feature loss_15q15.1b): Resistant
direction (peptide PUMA 1 uM, feature loss_16q22.1): Resistant
direction (peptide PUMA 1 uM, feature loss_17p13.3): Resistant
direction (peptide PUMA 1 uM, feature loss_20p11.22): Resistant
direction (peptide PUMA 1 uM, feature m-CLL): Sensitive

O=C(/C=C\n1cnc(-c2cc(C(F)(F)F)cc(C(F)(F)F)c2)n1)NNc1cnccn1 [Selinexor]
direction (Feature MYD88): Sensitive
direction [4]: Sensitive
direction (peptide BIM 0.01 uM, feature MYD88): Sensitive
direction (peptide PUMA 1 uM, feature loss_7q36.1): Sensitive
direction (peptide PUMA 1 uM, feature loss_8p): Sensitive

CNC(=O)c1cc(Oc2ccc(NC(=O)Nc3ccc(Cl)c(C(F)(F)F)c3)cc2)ccn1 [Sorafenib]
direction (peptide BAD 0.3 uM, feature GNB1): Sensitive
direction (peptide BAD 0.3 uM, feature RFX7): Sensitive
direction (peptide BAD 0.3 uM, feature ZMYM3): Sensitive
direction [5]: Resistant
direction (peptide BIM 0.01 uM, feature FBXW7): Resistant
direction (peptide BIM 0.01 uM, feature GNB1): Sensitive
direction (peptide BIM 0.01 uM, feature RFX7): Resistant
direction (peptide BIM 0.01 uM, feature ZMYM3): Resistant
direction (peptide BIM 0.01 uM, feature gain_19p13.3): Resistant
direction (peptide BIM 0.01 uM, feature loss_2q31.1): Resistant
direction (peptide BIM 0.01 uM, feature loss_10p12.2): Resistant
direction (peptide MS1 2.5 uM, feature RFX7): Resistant
direction (peptide MS1 2.5 uM, feature ZMYM3): Resistant
direction (peptide MS1 2.5 uM, feature gain_19p13.3): Resistant
direction (peptide MS1 2.5 uM, feature loss_2q31.1): Resistant
direction (peptide MS1 2.5 uM, feature loss_10p12.2): Resistant
direction (peptide MS1 2.5 uM, feature loss_10q24.2): Resistant
direction (peptide MS1 2.5 uM, feature loss_11q22.3): Resistant
direction [2]: Sensitive
direction (peptide MS1 2.5 uM, feature priortrt_Post): Resistant
direction (peptide PUMA 1 uM, feature FBXW7): Resistant
direction (peptide PUMA 1 uM, feature RFX7): Resistant
direction (peptide PUMA 1 uM, feature ZMYM3): Resistant

O=C(CCCCCCC(=O)Nc1ccccc1)NO [Vorinostat]
direction (Feature EC-m2): Sensitive
direction (Feature EC-m4): Resistant
direction (peptide BIM 0.01 uM, feature EC-m2): Sensitive
direction (peptide BIM 0.01 uM, feature EC-m4): Resistant
direction (peptide PUMA 1 uM, feature EC-m2): Sensitive
direction [3]: Resistant
direction (peptide PUMA 1 uM, feature loss_6q21): Sensitive

CN1CC[C@@H](c2c(O)cc(O)c3c(=O)cc(-c4ccc(C(F)(F)F)cc4Cl)oc23)[C@@H]1CO [Voruciclib]
direction [6]: Sensitive
dprim_pearson_corr [6]: 0.3672
direction [4]: Sensitive
dprim_pearson_corr [4]: 0.3672
direction [5]: Sensitive
dprim_pearson_corr [5]: 0.4321
direction [7]: Sensitive
dprim_pearson_corr [7]: 0.3672
direction [8]: Sensitive
dprim_pearson_corr [8]: 0.3672
direction [9]: Resistant
dprim_pearson_corr [9]: −0.4056
direction [10]: Resistant
dprim_pearson_corr [10]: −0.3372
direction [11]: Resistant
dprim_pearson_corr [11]: −0.3337
direction (peptide PUMA 1 uM, feature SF3B1): Resistant
direction [3]: Sensitive

fludarabine
response (apoptotic priming) (IGHV mutated CLLs, FDR<0.1, t-test): significant response
direction [12]: Sensitive
dprim_pearson_corr [12]: 0.4431
direction [13]: Sensitive
dprim_pearson_corr [13]: 0.5036
direction [14]: Sensitive
dprim_pearson_corr [14]: 0.4431
direction [15]: Sensitive
dprim_pearson_corr [15]: 0.4431
